Data published in patent publication US5371186A, “Synthetic peptides for detoxification of bacterial endotoxins and for the prevention and treatment of septic shock” (priority 1992, dated 1994).

What was measured:
[1] = highest dose tolerated in the mouse when injected alone; format: in vivo; conditions: intravenously
[2] = Rabbit pyrogen test of peptide/LPS complexes; format: in vivo; conditions: rabbits, complex with LPS injected, three hours observation
Text: As a consequence of this high-affinity binding to the Lipid A moiety of endotoxins, most of the synthetic peptide analogs have shown the ability to detoxify endotoxins as evidenced by in vitro as well as in vivo analysis. The in vitro test used, as measure of detoxification, the inhibition of the enzymatic cascade leading to the coagulation of the Lymulus lysate (LAL test) by endotoxin. The LAL test is recognized as the most sensitive and predictive test for the toxic and pyrogenic activity of LPS, since pyrogenicity in vivo is related to the release of the endogenous immune modulators Interleukin-1 (IL-l) and alfa-Tumor necrosis factor (α-TNF), the mediators responsible for the fatalities associated to septic shock. As an in vivo test confirming detoxification of LPS, was then used the Rabbit pyrogen test performed according to the United States Pharmacopeia XXI.
In order to verify "in vivo" the detoxifying activity of the peptides, we have injected five groups of three rabbits each with the complexes formed by two representative synthetic peptide analogs with LPS. The pyrogenicity test has been executed according to the United States Pharmacopeia (Vol. XXI)/The National formulary (Vol. XVI), Combined Edition, Jan. 1, 1985. As a negative control in the test, the complex formed by Polymyxin "B" and LPS was injected. As a positive control free LPS was injected. […]

[3] = survival of Balb/c mice after endotoxin challenge; format: in vivo, mice (Strain Balb/c); conditions: for % survival / Mice surviving: peptides 1 mg/mouse, Polymyxin B 0.1 mg/mouse i.v., 1 mg endotoxin i.p.; for Mice surviving: 20 mice per group
Method: Groups of 20 mice Balb/c have been treated intravenously with the peptides of the invention at the dose of 1 mg/mouse or with 0.1 mg/mouse of Polymyxin B (the highest dose of this drug tolerated in the mouse, when injected alone). Thirty minutes later, mice were challenged by intraperitoneal injection of 1 mg endotoxin from E.C strain 055-B5. Surviving mice were recorded every 24 hours during a seven days-period of observation. Negative controls received an intravenous injection of saline.
There were 20 mice per group. Mice surviving at each of the seven 24 hours observation periods are listed. The % survival appears in parenthesis. P expresses the level of statistical significance calculated by "t-Test" for each molecule compared to the treatment with saline, considering the total survival rate in each group.

trypsin in human serum = experiment: stability towards proteolysis by trypsin in human serum; format: in vitro ADME
Method: The effects of trypsin present in human serum on Polymyxin "B" and the peptides of invention was determined by combining 10 μl of human serum with 20 μg of the given peptide in 10 μl volume and holding the mixture at a temperature of 37° C. for different intervals of time. At various times, an aliquot of the mixture was processed by HPLC analysis in order to detect the residual amount of the investigated peptide. In Table VI the half-lives time of each peptide investigated are shown as compared to the half-life time of Polymyxin "B".

Polymyxin "B"
highest dose tolerated in the mouse [1]: 0.1 mg/mouse
pyrogenicity (temperature increase) of complex with LPS [2]: did not show either of the two waves of temperature increase
% survival ([3]; 24 hs): 90%
Mice surviving ([3]; 24 hs): 18
% survival ([3]; 48 hs): 70%
Mice surviving ([3]; 48 hs): 14
% survival ([3]; 72 hs): 60%
Mice surviving ([3]; 72 hs): 12
% survival ([3]; 96 hs): 0%
Mice surviving ([3]; 96 hs): 0
% survival ([3]; 120 hs): 0%
Mice surviving ([3]; 120 hs): 0
% survival ([3]; 144 hs): 0%
Mice surviving ([3]; 144 hs): 0
% survival ([3]; 168 hs): 0%
Mice surviving ([3]; 168 hs): 0
safety and efficacy of treatment ([3]; Balb/c mice, 1 mg endotoxin challenge): resulted efficacious only within three days following the endotoxin challenge
stability in the presence of proteolytic enzymes such as trypsin (trypsin in human serum): stable in the presence of trypsin
Half-Life Time (t/2) (trypsin in human serum; human serum, 37° C.): > 3 h
